#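 Protocol summary: plate cells (96-well), add compound at 5 concentrations, incubate 48 h, interpolate endpoints linearly. At the GI50, growth is halved. TGI denotes the concentration required for complete inhibition of growth.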
# Key:
# Experiment in all cases: DTP human tumour cell line panel, 48 h
# A549 NSCLC = system: A549 NSCLC
# IGROV1 ovarian = system: IGROV1 ovarian
# A498 renal = system: A498 renal
# OVCAR-5 ovarian = system: OVCAR-5 ovarian
# HCC-2998 colon = system: HCC-2998 colon
# SF-539 CNS = system: SF-539 CNS
# SK-OV-3 ovarian = system: SK-OV-3 ovarian
# M14 melanoma = system: M14 melanoma
# DU-145 prostate = system: DU-145 prostate
# SW-620 colon = system: SW-620 colon
# MOLT-4 leukemia = system: MOLT-4 leukemia
# UACC-257 melanoma = system: UACC-257 melanoma
# HT29 colon = system: HT29 colon
# PC-3 prostate = system: PC-3 prostate
# MALME-3M melanoma = system: MALME-3M melanoma
# MDA-MB-435 = system: MDA-MB-435
# MDA-MB-231 breast = system: MDA-MB-231 breast
# ACHN renal = system: ACHN renal
# COLO 205 colon = system: COLO 205 colon
# NCI-H23 lung = system: NCI-H23 lung
# NCI/ADR-RES ovarian = system: NCI/ADR-RES ovarian
# OVCAR-8 ovarian = system: OVCAR-8 ovarian
# LOX IMVI melanoma = system: LOX IMVI melanoma
# RXF 393 renal = system: RXF 393 renal
# SK-MEL-5 melanoma = system: SK-MEL-5 melanoma
# NCI-H226 lung = system: NCI-H226 lung
# OVCAR-3 ovarian = system: OVCAR-3 ovarian
# HCT-15 colon = system: HCT-15 colon
# EKVX NSCLC = system: EKVX NSCLC
# MCF7 breast = system: MCF7 breast
# K-562 leukemia = system: K-562 leukemia
# SR leukemia = system: SR leukemia
# KM12 colon = system: KM12 colon
# HOP-92 NSCLC = system: HOP-92 NSCLC
# RPMI-8226 leukemia = system: RPMI-8226 leukemia
# U251 CNS = system: U251 CNS
# SK-MEL-28 melanoma = system: SK-MEL-28 melanoma
# NCI-H522 lung = system: NCI-H522 lung
# CAKI-1 renal = system: CAKI-1 renal
# UACC-62 melanoma = system: UACC-62 melanoma
# BT-549 breast = system: BT-549 breast
# HOP-62 NSCLC = system: HOP-62 NSCLC
# HS 578T breast = system: HS 578T breast
# OVCAR-4 ovarian = system: OVCAR-4 ovarian
# SK-MEL-2 melanoma = system: SK-MEL-2 melanoma
# T-47D breast = system: T-47D breast
# NCI-H460 lung = system: NCI-H460 lung
# SF-295 CNS = system: SF-295 CNS
# HCT-116 colon = system: HCT-116 colon
# HL-60(TB) leukemia = system: HL-60(TB) leukemia
# MDA-MB-468 breast = system: MDA-MB-468 breast
# SF-268 CNS = system: SF-268 CNS
# SNB-75 CNS = system: SNB-75 CNS
# 786-0 renal = system: 786-0 renal
# CCRF-CEM leukemia = system: CCRF-CEM leukemia
# SN12C renal = system: SN12C renal
# UO-31 renal = system: UO-31 renal
# TK-10 renal = system: TK-10 renal
# SNB-19 CNS = system: SNB-19 CNS
structure (smiles),measurement,setting,value
CCN1CCN(c2ccc(NC(=O)Nc3ccc4c(c3F)CCN4c3ccnc(C(=O)NC)c3)cc2C(F)(F)F)CC1,GI50,A549 NSCLC,6.75 µM
same,TGI,A549 NSCLC,13.5 µM
same,GI50,IGROV1 ovarian,6.66 µM
same,TGI,IGROV1 ovarian,12.2 µM
same,GI50,A498 renal,5.77 µM
same,TGI,A498 renal,10.9 µM
same,GI50,OVCAR-5 ovarian,5.82 µM
same,TGI,OVCAR-5 ovarian,10.8 µM
same,GI50,HCC-2998 colon,6.44 µM
same,TGI,HCC-2998 colon,12 µM
same,GI50,SF-539 CNS,2.35 µM
same,TGI,SF-539 CNS,7.24 µM
same,GI50,SK-OV-3 ovarian,5.84 µM
same,TGI,SK-OV-3 ovarian,11.6 µM
same,GI50,M14 melanoma,6.8 µM
same,TGI,M14 melanoma,14.5 µM
same,GI50,DU-145 prostate,6.45 µM
same,TGI,DU-145 prostate,11.9 µM
same,GI50,SW-620 colon,5.07 µM
same,TGI,SW-620 colon,11.1 µM
same,GI50,MOLT-4 leukemia,2.09 µM
same,TGI,MOLT-4 leukemia,16.3 µM
same,GI50,UACC-257 melanoma,6.27 µM
same,TGI,UACC-257 melanoma,12 µM
same,GI50,HT29 colon,3.06 µM
same,TGI,HT29 colon,9.53 µM
same,GI50,PC-3 prostate,7.39 µM
same,TGI,PC-3 prostate,18.9 µM
same,GI50,MALME-3M melanoma,5.49 µM
same,TGI,MALME-3M melanoma,10.5 µM
same,GI50,MDA-MB-435,5.09 µM
same,TGI,MDA-MB-435,10.4 µM
same,GI50,MDA-MB-231 breast,6.26 µM
same,TGI,MDA-MB-231 breast,11.5 µM
same,GI50,ACHN renal,5.9 µM
same,TGI,ACHN renal,10.9 µM
same,GI50,COLO 205 colon,10.7 µM
same,TGI,COLO 205 colon,> 37.3 µM
same,GI50,NCI-H23 lung,5.97 µM
same,TGI,NCI-H23 lung,12 µM
same,GI50,NCI/ADR-RES ovarian,6.87 µM
same,TGI,NCI/ADR-RES ovarian,16 µM
same,GI50,OVCAR-8 ovarian,7.08 µM
same,TGI,OVCAR-8 ovarian,15.6 µM
same,GI50,LOX IMVI melanoma,5.54 µM
same,TGI,LOX IMVI melanoma,10.7 µM
same,GI50,RXF 393 renal,1.35 µM
same,TGI,RXF 393 renal,6.03 µM
same,GI50,SK-MEL-5 melanoma,6.1 µM
same,TGI,SK-MEL-5 melanoma,11.3 µM
same,GI50,NCI-H226 lung,6.58 µM
same,TGI,NCI-H226 lung,14.7 µM
same,GI50,OVCAR-3 ovarian,6.02 µM
same,TGI,OVCAR-3 ovarian,11.6 µM
same,GI50,HCT-15 colon,5.54 µM
same,TGI,HCT-15 colon,12.1 µM
same,GI50,EKVX NSCLC,6.71 µM
same,TGI,EKVX NSCLC,12.6 µM
same,GI50,MCF7 breast,5.93 µM
same,TGI,MCF7 breast,13.1 µM
same,GI50,K-562 leukemia,7.43 µM
same,TGI,K-562 leukemia,> 37.3 µM
same,GI50,SR leukemia,5.44 µM
same,TGI,SR leukemia,18.7 µM
same,GI50,KM12 colon,0.341 µM
same,TGI,KM12 colon,6.62 µM
same,GI50,HOP-92 NSCLC,5.87 µM
same,TGI,HOP-92 NSCLC,12.5 µM
same,GI50,RPMI-8226 leukemia,7.73 µM
same,TGI,RPMI-8226 leukemia,30.9 µM
same,GI50,U251 CNS,4.8 µM
same,TGI,U251 CNS,9.97 µM
same,GI50,SK-MEL-28 melanoma,5.65 µM
same,TGI,SK-MEL-28 melanoma,10.8 µM
same,GI50,NCI-H522 lung,7.1 µM
same,TGI,NCI-H522 lung,13.8 µM
same,GI50,CAKI-1 renal,6.56 µM
same,TGI,CAKI-1 renal,12 µM
same,GI50,UACC-62 melanoma,6.18 µM
same,TGI,UACC-62 melanoma,11.3 µM
same,GI50,BT-549 breast,6.92 µM
same,TGI,BT-549 breast,13.4 µM
same,GI50,HOP-62 NSCLC,5.34 µM
same,TGI,HOP-62 NSCLC,10.9 µM
same,GI50,HS 578T breast,4.9 µM
same,TGI,HS 578T breast,13.2 µM
same,GI50,OVCAR-4 ovarian,6.3 µM
same,TGI,OVCAR-4 ovarian,13.7 µM
same,GI50,SK-MEL-2 melanoma,> 37.3 µM
same,TGI,SK-MEL-2 melanoma,> 37.3 µM
same,GI50,T-47D breast,> 37.3 µM
same,TGI,T-47D breast,> 37.3 µM
same,GI50,NCI-H460 lung,6.04 µM
same,TGI,NCI-H460 lung,12.3 µM
same,GI50,SF-295 CNS,3.52 µM
same,TGI,SF-295 CNS,8.23 µM
same,GI50,HCT-116 colon,6.98 µM
same,TGI,HCT-116 colon,16.5 µM
same,GI50,HL-60(TB) leukemia,6.65 µM
same,TGI,HL-60(TB) leukemia,15.7 µM
same,GI50,MDA-MB-468 breast,6.36 µM
same,TGI,MDA-MB-468 breast,12.7 µM
same,GI50,SF-268 CNS,6.13 µM
same,TGI,SF-268 CNS,14 µM
same,GI50,SNB-75 CNS,0.585 µM
same,TGI,SNB-75 CNS,6.84 µM
same,GI50,786-0 renal,5.77 µM
same,TGI,786-0 renal,13.7 µM
same,GI50,CCRF-CEM leukemia,6.25 µM
same,TGI,CCRF-CEM leukemia,24.4 µM
same,GI50,SN12C renal,5.88 µM
same,TGI,SN12C renal,11.2 µM
same,GI50,UO-31 renal,5.43 µM
same,TGI,UO-31 renal,10.3 µM
same,GI50,TK-10 renal,7.52 µM
same,TGI,TK-10 renal,13.1 µM
same,GI50,SNB-19 CNS,5.95 µM
same,TGI,SNB-19 CNS,11.2 µM

# Reference: PubChem BioAssay (NCI)
